Laboratory results as given in the NIST ThermoML archive (doi:10.1021/je0502593).

Columns and labels:
[1] = 101.33 kPa, Liquid, Capillary tube (Ostwald / Ubbelohde) method
[2] = xn = mol fraction of the nth substance listed; details: 101 kPa, Liquid, Capillary tube (Ostwald / Ubbelohde) method, x1 = 0.364

CC1CCCCC1 [methylcyclohexane]
[1]
Details	viscosity [mPa·s]
298.61 K	0.7341
303.63 K	0.6844
308.95 K	0.636
317.71 K	0.5669
323.66 K	0.5268
328.77 K	0.4964
333.69 K	0.469

FC(F)(F)C1(F)C(F)(F)C(F)(F)C(F)(F)C(F)(F)C1(F)F [perfluoro(methylcyclohexane)]
[1]
Details	viscosity [mPa·s]
319.2 K	1.031
320.16 K	1.011
323.18 K	0.9582
328.13 K	0.8787
333.11 K	0.8074

FC(F)(F)C1(F)C(F)(F)C(F)(F)C(F)(F)C(F)(F)C1(F)F [perfluoro(methylcyclohexane)] + CC1CCCCC1
[2]
Details	viscosity [mPa·s]
320.16 K	0.7472
320.19 K	0.728
320.34 K	0.689
320.5 K	0.6723
320.74 K	0.6544
321 K	0.6428
321.39 K	0.6292
321.96 K	0.6151
322.62 K	0.6018
324.05 K	0.5798
325.5 K	0.5617
326.98 K	0.5452
328.41 K	0.5313
330.08 K	0.517
331.6 K	0.5034
333.21 K	0.4923
334.85 K	0.4806
336.69 K	0.4679
338.48 K	0.4558
340.38 K	0.4438
